Experimental data published in PubChem BioAssay (NCI).
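Values below derive from 48-hour exposures of cells grown in 96-well plates, with endpoints linearly interpolated between the two concentrations bracketing the appropriate inhibition level. GI50 marks 50% less growth. The concentration for full growth arrest is given as TGI.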

What was measured:
Experiment in all cases: inhibition of tumour cell growth, NCI panel, 48 h
BT-549 breast = tested on: BT-549 breast
SNB-75 CNS = tested on: SNB-75 CNS
MDA-MB-435 = tested on: MDA-MB-435
OVCAR-8 ovarian = tested on: OVCAR-8 ovarian
HT29 colon = tested on: HT29 colon
SNB-19 CNS = tested on: SNB-19 CNS
HL-60(TB) leukemia = tested on: HL-60(TB) leukemia
COLO 205 colon = tested on: COLO 205 colon
LOX IMVI melanoma = tested on: LOX IMVI melanoma
SF-539 CNS = tested on: SF-539 CNS

Compound	GI50 (BT-549 breast) [µM]	TGI (BT-549 breast) [µM]	GI50 (SNB-75 CNS) [µM]	TGI (SNB-75 CNS) [µM]	GI50 (MDA-MB-435) [µM]	TGI (MDA-MB-435) [µM]	GI50 (OVCAR-8 ovarian) [µM]	TGI (OVCAR-8 ovarian) [µM]	GI50 (HT29 colon) [µM]	TGI (HT29 colon) [µM]	GI50 (SNB-19 CNS) [µM]	TGI (SNB-19 CNS) [µM]	GI50 (HL-60(TB) leukemia) [µM]	TGI (HL-60(TB) leukemia) [µM]	GI50 (COLO 205 colon) [µM]	TGI (COLO 205 colon) [µM]	GI50 (LOX IMVI melanoma) [µM]	TGI (LOX IMVI melanoma) [µM]	GI50 (SF-539 CNS) [µM]	TGI (SF-539 CNS) [µM]
COc1cc2c(cc1OC)-c1c(c3ccc([N+](=O)[O-])cc3c(=O)n1CCCN=[N+]=[N-])C2=O	> 100	> 100	86.2	> 100	> 100	> 100	40.9	> 100	> 100	> 100	> 100	> 100	73	> 100	> 100	> 100	25.3	> 100	36.4	> 100
COc1ccccc1-c1ccc2c(N)c(C(=O)c3ccc4c(c3)OCO4)sc2n1	7.21	30.2	3.27	15.6	2.27	9.54	4.57	16.7			7.97	30.2	4.83	> 100	10	31	4.61	21.6	4.94	17
CC[C@H](C)C(=O)O[C@H]1CCC=C2C=C[C@H](C)[C@H](CC[C@@H]3C[C@@H](O)CC(=O)O3)[C@H]21	14.4	> 78.5	1.37	4.68	7.51	> 100	5.05	> 100	28	> 100	3.54	> 100	17.1	76.5		82	1.07	6.53	12.8	> 100
CCCCNP1(NCCCC)=NP(NCCCC)(NCCCC)=NP(NCCCC)(NCCCC)=NP(NCCCC)(NCCCC)=N1	4.08	15.3	3.13	15.8	0.931	6.51	1.98	17.4	0.213	17.7	1.12	27.9	0.098	0.888	0.301	0.848	0.29	2.11	2.89	8.55
O=C(Nc1cccc(-n2ccc3c(NC(=O)c4ccccc4)nccc32)c1)c1ccc(Cl)c(Cl)c1	0.214	1.26	0.147	1.22	0.0275	0.103	0.274	1.86	0.0833	0.84	0.219	1.89	0.188	0.977	0.124	0.517	0.219	1.57	0.197	0.952
COC(=O)c1cc2c([nH]c3ccccc32)c(-c2nc3ccccc3cc2CO)n1	> 100	> 100	40.1	> 100	> 100	> 100	> 100	> 100	> 100	> 100	> 100	> 100	24.9	50.2	> 100	> 100	> 100	> 100	47	> 100
Fc1ccc(-c2c(-c3ccncc3)[nH]c3cccnc23)cc1	> 25	> 25	> 17.8	> 25	> 25	> 25	> 25	> 25	8.18	> 25	> 25	> 25	> 25	> 25	18.6	> 25	> 21.7	> 25	> 25	> 25
CCCCCCCCCCCCCC(=O)NO		33.1		40		67		50.7		25.3		73.2		23.7		20.1		15.5		37.9
N#Cc1ccc(C(=O)c2cnn(-c3ccc(F)cc3)c2N)cc1	> 25	> 25	> 25	> 25	> 25	> 25	> 25	> 25	> 25	> 25	> 25	> 25	> 25	> 25	> 25	> 25	> 25	> 25	> 25	> 25
COc1ccccc1/C=C1\CCC(CN2CCOCC2)C1=O (stereo not given)		29.8		46.3		20.4		16.9		56.6		22.6		6.42		14.2		15.7		28.6
CN(C)c1ccc2cc3c(cc2c1)Oc1ccccc1N3.[Cl][Zn][Cl]	14.4	27.7	11.4	24.2	1.98	4.19	5.64	> 100	4.09	> 100	20.6	52.2	2.61	7.3			1.6	3.22	3.68	15.6
